In US5827849A, “Cyclic dericatives, pharmaceutical compositions containing these compounds and processes for preparing them” (Karl Thomae GmbH, priority 1993, dated 1998):
pEC50, pIC50: −log10 of the molar value. Counter-ions that a name gives are not always drawn.

Experiments:
Human thrombocytes = assay: Inhibition of the binding of 3H-BIBU 52 to human thrombocytes (platelets); settings: human thrombocytes in plasma; 3H-BIBU 52 5 nM; 20 minutes, ambient temperature; read-out: 3H-BIBU 52-binding test IC50
Experimental: 1. Inhibition of the binding of ^3 H-BIBU 52 to Human thrombocytes […] Case 5/1093-FL) and various concentrations of the test substance. The free and bound ligand are separated by centrifuging and quantitatively measured by scintillation counting. From the measurements obtained the inhibition of ^3 H-BIBU 52 binding caused by the test substance is determined. In order to do this, donor blood is taken from an anticubital vein and anti-coagulated with trisodium citrate (final concentration 13 mM). The blood is centrifuged for 10 minutes at 170×g and the supernatant platelet-rich plasma (PRP) is removed. The remaining blood is centrifuged vigorously once more in order to recover plasma. The PRP is diluted with autologous plasma 1:10. 750 μl are incubated for 20 minutes at ambient temperature with 50 μl of physiological saline solution, 100 μl of test substance solution, 50 μl of ^14 C-sucrose (3700 Bq) and 50 μl of ^3 H-BIBU 52 (final concentration: 5 nM). In order to measure the non specific binding, 5 μl of BIBU 52 (final concentration 30 μM) are used instead of the test substance. […] The pellet is dissolved in 500 μl of 0.2N NaOH, 450 μl are mixed with 2 ml of scintallator and 25 μl of 5N HCl, and measured. The residual plasma remaining in the pellet is determined from the ^14 C-content, and the bound ligand is determined from the ^3 H-measurement. After substracting the non specific binding, the pellet activity is plotted against the concentration of the test substance and the concentration for 50% inhibition of binding is determined. A. Inhibition of the binding of ^3 H-BIBU 52 to human platelets […] The free and bound ligand is separated by centrifugation and determined quantitatively by scintillation counting. The inhibition of ^3 H-BIBU 52 binding by the test substance is determined from the measurements. For this purpose, donor blood is taken from an antecubital vein and anticoagulated with trisodium citrate (final concentration 13 mM). The blood is centrifuged at 170×g for 10 minutes, and the supernatant platelet-rich plasma (PRP) is removed. The remaining blood is thoroughly centrifuged once again to obtain plasma. The PRP is diluted 1:10 with autologous plasma. […] are incubated with […] of physiological saline, […] of test substance solution, […] of ^14 C-sucrose (3700 Bq) and 50 ml of ^3 H-BIBU 52 (final concentration: 5 nM) at room temperature for 20 minutes. To measure the nonspecific binding, 5 ml of BIBU 52 (final concentration: […]) are used in place of the test substance. […] The pellet is dissolved in 500 ml of 0.2N NaOH, and 450 ml are mixed with 2 ml of scintillator and 25 ml of 5N HCl and measured. The remaining plasma still present in the pellet is determined from the ^14 C content, and the bound ligand is determined from the ^3 H measurement. After subtraction of the nonspecific binding, the activity in the pellet is plotted against the concentration of test substance, and the concentration for 50% inhibition of binding is found.

[1] = test system: Thrombocyte aggregation (collagen-induced); assay: Collagen-induced platelet aggregation in platelet-rich plasma (Born and Cross method); type: cell-based; settings: Homo sapiens, 10 min, platelet-rich plasma of healthy volunteers, 10 minutes incubation at 37° C., compounds of general formula I, read-out: Inhibition of platelet aggregation EC50
Experimental: 2. Antithrombotic activity Thrombocyte aggregation is measured using the Born and Cross method (J. Physiol. 170: 397 (1964)) in platelet-rich plasma taken from healthy volunteers. To inhibit coagulation the blood is mixed with 3.14% sodium citrate in a ratio by volume of 1:10. Collagen-induced aggregation The pattern of the decrease in optical density of the platelet suspension is photometrically measured and recorded after the addition of the aggregation-triggering substance. The rate of aggregation is determined from the angle of inclination of the density curve. The point on the curve where there is maximum light transmittance is used to calculate the optical density. The amount of collagen used is as small as possible but sufficient to produce an irreversible reaction curve. Standard commercial collagen produced by Hormonchemie of Munich is used. Before the addition of the collagen the plasma is incubated for 10 minutes with the test substance at 37° C. From the measurements obtained, an EC50 is determined graphically, indicating a 50% change in the optical density in terms of the inhibition of aggregation. B. Antithrombotic effect Platelet aggregation is measured by the method of Born and Cross (J. Physiol. 170, 397 (1964)) in platelet-rich plasma from healthy test subjects. For anticoagulation, sodium citrate 3.14% is added to the blood in the ratio 1:10 by volume. Collagen-induced aggregation The course of the decrease in optical density of the platelet suspension is measured and recorded photometrically after addition of the aggregation-inducing substance. The rate of aggregation is established from the angle of inclination of the density plot. The point on the plot at which the transmission of light is a maximum is used to calculate the optical density. The amount of collagen is chosen to be as small as possible but sufficient for the reaction plot to have an irreversible course. The collagen commercially obtainable from Hormonchemie, Munich, is used. Before the addition of collagen the plasma is in each case incubated with the substance at 37° C. for 10 minutes. An EC50 which relates to a 50% change in the optical density in the sense of inhibition of aggregation is determined graphically from the measured results.

mice = assay: Tolerance after intravenous administration in mice; type: in vivo; settings: mice (three), 30 mg/kg
[2] = test system: collagen-induced thrombocyte aggregation; assay: Inhibition of collagen-induced thrombocyte aggregation ex vivo after oral administration; type: in vivo; settings: Rhesus monkeys; oral administration of 1 mg/kg

Row | SMILES | pIC50 (Human thrombocytes) | pEC50 [1] | deaths / tolerance after intravenous administration (mice) | duration of inhibition of collagen-induced thrombocyte aggregation ex vivo [2]
1 | CN1CCc2ccc(N3CCN(c4ccc(CCC(=O)O)cc4)C3=O)cc2CC1 [8(1), 1-[4-(2-carboxyethyl)phenyl]-3-(3-methyl-2,3,4,5-tetrahydro-1H-3-benzazepin-7-yl)-imidazolidin-2-one-hydrochloride×1.5 water] | 7.44 | 6.82 | none of the three test animals died | –
2 | CN1CCc2ccc(N3CCN([C@H]4CC[C@H](CCC(=O)O)CC4)C3=O)cc2CC1.Cl [Example 19, 1-[trans-4-(2-Carboxyethyl)cyclohexyl]-3-(3-methyl-2,3,4,5-tetrahydro-1H-3-benzazepin-7-yl)-imidazolidin-2-one-hydrochloride] | 7.23 | 6.64 | none of the three test animals died | more than 8 hours
